Source: paper PMC8198181, “Evaluation of Substituted N-Phenylpiperazine Analogs as D3 vs. D2 Dopamine Receptor Subtype Selective Ligands” (Molecules, 2021)

How the values were obtained:
[1] = target: T1, D3 dopamine receptor (Homo sapiens, UniProt P35462); assay: Forskolin-dependent adenylyl cyclase inhibition assay (cAMP-Glo, HEK cells); assay type: cell-based; parameters: expressed in transfected cells; host or cells: HEK293; details: human D3, test compound at 10x Ki, normalized to quinpirole 10,000 nM
T1 sequence (P35462 whole entry): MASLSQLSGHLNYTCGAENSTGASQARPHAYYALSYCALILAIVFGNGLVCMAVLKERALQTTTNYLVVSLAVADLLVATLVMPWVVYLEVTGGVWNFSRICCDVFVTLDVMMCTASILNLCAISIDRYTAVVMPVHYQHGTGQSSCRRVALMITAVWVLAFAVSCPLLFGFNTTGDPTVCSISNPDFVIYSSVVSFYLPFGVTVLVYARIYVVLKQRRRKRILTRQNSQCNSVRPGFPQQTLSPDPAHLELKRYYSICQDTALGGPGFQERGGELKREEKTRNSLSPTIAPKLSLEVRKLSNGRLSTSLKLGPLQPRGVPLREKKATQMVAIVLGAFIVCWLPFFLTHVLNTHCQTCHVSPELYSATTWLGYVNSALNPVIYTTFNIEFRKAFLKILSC
Method: (§1) Quinpirole was used as a reference prototypic full agonist and haloperidol was used as a reference prototypic antagonist.
The forskolin-dependent adenylyl cyclase inhibition assay was performed using a cAMP-Glo Assay kit (Promega). For this assay cAMP stimulates protein kinase A (PKA) activity, which leads to a decrease in ATP levels and a decrease in the luciferase-coupled production of light. This is a 96 well plate assay using HEK cells stably transfected to express the human D3 dopamine receptor (10,000 cells/well/0.1 mL complete media). After removing media and rinsing with phosphate buffered saline, cells were incubated with 20 μL of forskolin (6000 nM) and test compound or vehicle. […] After cells, test compound (or vehicle) and forskolin (or vehicle) were incubated for 15 min, cells were lysed using 20 μL lysis buffer (provided with the kit) and mixed for 15 min at room temperature. A cAMP Detection Solution (40 μL) was added to each well, gently mixed for 60 s and incubated at room temperature for 20 min. The Kinase-Glo Solution was added (40 μL) to terminate the PKA reaction. The reaction mixture was gently mixed for 60 s and then incubated at room temperature for 10 min. The remaining ATP was detected via a luciferase reaction. The plates were read using an Enspire Alpha 2390 Multilabel Reader/Luminometer. Haloperidol (200 nM) and quinpirole (10,000 nM) was used as a prototypic reference antagonist and full agonist, respectively.
(§2) Figure 3 Comparison of the Efficacy of Phenylthiophene Analogs for Adenylyl Cyclase Inhibition and β-Arrestin Binding at Human D3 Dopamine Receptors. […] Values were normalized to reference full agonist quinpirole (10,000 nM).

[2] = target: D1 dopamine receptor (Homo sapiens, UniProt P21728); assay: PDSP off-target binding; details: in words
Text: (§3) Further evaluation of the off-target binding of compound 6a was provided by the Psychoactive Drug Screening Program (PDSP) for a range of receptors including serotonin receptor subtypes, α-adrenergic receptor subtypes, β-adrenergic receptor subtypes, histaminergic receptor subtypes, muscarinic receptor subtypes, opioid receptor subtypes and the two sigma receptor subtypes.

[3] = target: α1a adrenergic receptor (Homo sapiens, UniProt P35348); assay: PDSP off-target binding; details: read-out: binding affinity α1a (PDSP)
Chain of α1a adrenergic receptor (P35348 whole entry): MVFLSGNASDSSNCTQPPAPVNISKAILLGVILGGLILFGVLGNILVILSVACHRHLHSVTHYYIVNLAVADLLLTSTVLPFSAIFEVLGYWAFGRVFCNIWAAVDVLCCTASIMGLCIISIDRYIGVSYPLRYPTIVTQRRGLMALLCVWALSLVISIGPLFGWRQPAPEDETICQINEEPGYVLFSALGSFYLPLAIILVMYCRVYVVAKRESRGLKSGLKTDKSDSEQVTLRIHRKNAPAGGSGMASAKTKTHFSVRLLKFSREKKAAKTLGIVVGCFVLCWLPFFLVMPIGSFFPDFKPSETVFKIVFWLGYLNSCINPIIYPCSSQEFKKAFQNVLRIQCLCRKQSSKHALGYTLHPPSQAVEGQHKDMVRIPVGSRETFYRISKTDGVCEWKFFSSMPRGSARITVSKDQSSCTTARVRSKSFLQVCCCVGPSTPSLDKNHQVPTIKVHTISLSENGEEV
Text: as §3

[4] = target: serotonin transporter (SERT) (Homo sapiens, UniProt P31645); assay: PDSP off-target binding; details: read-out: binding affinity SERT (PDSP)
Text: as §3

[5] = target: α1b adrenergic receptor (Homo sapiens, UniProt P35368); assay: PDSP off-target binding; details: read-out: binding affinity α1b (PDSP)
Chain of α1b adrenergic receptor (P35368 whole entry): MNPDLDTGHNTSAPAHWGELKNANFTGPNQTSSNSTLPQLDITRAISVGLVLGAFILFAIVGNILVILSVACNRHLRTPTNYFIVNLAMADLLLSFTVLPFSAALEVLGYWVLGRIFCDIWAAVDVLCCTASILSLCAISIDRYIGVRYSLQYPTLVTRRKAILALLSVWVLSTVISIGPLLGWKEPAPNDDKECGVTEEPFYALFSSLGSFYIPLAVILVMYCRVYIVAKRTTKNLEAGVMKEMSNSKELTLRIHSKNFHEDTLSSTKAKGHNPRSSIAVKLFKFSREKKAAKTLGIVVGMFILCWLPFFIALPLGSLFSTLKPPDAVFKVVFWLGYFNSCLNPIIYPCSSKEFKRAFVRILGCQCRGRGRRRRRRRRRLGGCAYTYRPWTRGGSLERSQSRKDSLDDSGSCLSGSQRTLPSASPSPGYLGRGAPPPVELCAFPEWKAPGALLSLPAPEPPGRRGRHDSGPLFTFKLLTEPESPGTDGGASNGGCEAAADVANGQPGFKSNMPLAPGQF
Text: as §3

[6] = target: α1d adrenergic receptor (Homo sapiens, UniProt P25100); assay: PDSP off-target binding; details: read-out: binding affinity α1d (PDSP)
Chain of α1d adrenergic receptor (P25100 whole entry): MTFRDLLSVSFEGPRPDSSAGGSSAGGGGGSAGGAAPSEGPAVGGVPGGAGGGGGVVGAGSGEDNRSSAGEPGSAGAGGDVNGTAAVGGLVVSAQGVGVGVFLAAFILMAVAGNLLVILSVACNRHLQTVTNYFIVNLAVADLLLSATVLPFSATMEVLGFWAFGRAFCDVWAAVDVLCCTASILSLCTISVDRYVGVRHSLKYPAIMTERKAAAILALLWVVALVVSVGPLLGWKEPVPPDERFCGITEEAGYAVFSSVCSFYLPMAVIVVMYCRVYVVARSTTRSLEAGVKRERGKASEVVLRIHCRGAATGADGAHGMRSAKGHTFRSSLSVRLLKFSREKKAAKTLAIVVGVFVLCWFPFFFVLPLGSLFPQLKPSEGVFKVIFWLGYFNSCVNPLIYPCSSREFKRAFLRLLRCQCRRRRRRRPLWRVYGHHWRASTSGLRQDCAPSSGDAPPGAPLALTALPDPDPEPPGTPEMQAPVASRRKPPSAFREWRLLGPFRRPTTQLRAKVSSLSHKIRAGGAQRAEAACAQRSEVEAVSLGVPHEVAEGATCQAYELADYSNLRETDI
Text: as §3

[7] = target: dopamine transporter (DAT) (Homo sapiens, UniProt Q01959); assay: PDSP off-target binding; details: read-out: binding affinity DAT (PDSP)
Chain of dopamine transporter (DAT) (Q01959 whole entry, species assumed): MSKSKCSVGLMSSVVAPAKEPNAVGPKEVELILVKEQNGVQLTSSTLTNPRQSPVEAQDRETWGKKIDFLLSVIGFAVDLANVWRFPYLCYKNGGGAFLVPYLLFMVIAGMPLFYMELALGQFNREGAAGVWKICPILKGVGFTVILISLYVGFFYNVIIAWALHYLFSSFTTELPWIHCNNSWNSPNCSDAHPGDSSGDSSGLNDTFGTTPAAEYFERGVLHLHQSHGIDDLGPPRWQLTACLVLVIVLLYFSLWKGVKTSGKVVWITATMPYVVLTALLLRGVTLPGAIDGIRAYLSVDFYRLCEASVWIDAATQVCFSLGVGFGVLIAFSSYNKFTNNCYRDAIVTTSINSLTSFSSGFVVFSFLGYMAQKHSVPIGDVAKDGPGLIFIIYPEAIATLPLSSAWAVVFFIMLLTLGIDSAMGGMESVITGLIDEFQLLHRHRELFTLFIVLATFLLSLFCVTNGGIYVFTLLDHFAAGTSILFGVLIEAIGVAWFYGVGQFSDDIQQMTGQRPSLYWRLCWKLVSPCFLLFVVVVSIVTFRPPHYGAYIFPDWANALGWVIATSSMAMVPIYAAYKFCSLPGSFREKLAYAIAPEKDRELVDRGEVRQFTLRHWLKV
Text: as §3

[8] = target: α2c adrenergic receptor (Homo sapiens, UniProt P18825); assay: PDSP off-target binding; details: read-out: binding affinity α2c (PDSP)
Text: as §3

[9] = target: T1, D3 dopamine receptor; assay: PDSP off-target binding; details: read-out: binding affinity D3 (PDSP)
Text: as §3

[10] = target: α2a adrenergic receptor (Homo sapiens, UniProt P08913); assay: PDSP off-target binding; details: read-out: binding affinity α2a (PDSP)
Chain of α2a adrenergic receptor (P08913 whole entry): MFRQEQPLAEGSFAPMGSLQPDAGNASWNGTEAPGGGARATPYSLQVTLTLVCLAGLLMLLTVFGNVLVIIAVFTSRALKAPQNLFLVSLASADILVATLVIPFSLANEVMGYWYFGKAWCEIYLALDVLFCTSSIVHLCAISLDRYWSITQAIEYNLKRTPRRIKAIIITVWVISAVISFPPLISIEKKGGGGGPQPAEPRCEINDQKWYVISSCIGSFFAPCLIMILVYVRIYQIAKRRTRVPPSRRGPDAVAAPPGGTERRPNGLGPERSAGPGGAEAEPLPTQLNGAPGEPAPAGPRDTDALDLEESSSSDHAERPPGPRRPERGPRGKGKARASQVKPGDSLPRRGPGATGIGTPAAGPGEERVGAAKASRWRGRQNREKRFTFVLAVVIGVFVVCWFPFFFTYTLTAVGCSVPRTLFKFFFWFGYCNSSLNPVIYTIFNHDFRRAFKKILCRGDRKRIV
Text: as §3

[11] = target: sigma-1 receptor (Homo sapiens, UniProt Q99720); assay: PDSP off-target binding; details: read-out: binding affinity sigma-1 (PDSP)
Chain of sigma-1 receptor (Q99720 whole entry, species assumed): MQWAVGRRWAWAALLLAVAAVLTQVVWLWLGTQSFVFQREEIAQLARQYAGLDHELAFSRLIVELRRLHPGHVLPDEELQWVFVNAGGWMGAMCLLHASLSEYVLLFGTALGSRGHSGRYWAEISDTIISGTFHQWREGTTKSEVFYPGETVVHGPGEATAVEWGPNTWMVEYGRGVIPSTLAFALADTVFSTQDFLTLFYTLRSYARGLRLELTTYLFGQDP
Text: as §3

[12] = target: D2 dopamine receptor (Homo sapiens, UniProt P14416); assay: PDSP off-target binding; details: in words
Chain of D2 dopamine receptor (P14416 whole entry): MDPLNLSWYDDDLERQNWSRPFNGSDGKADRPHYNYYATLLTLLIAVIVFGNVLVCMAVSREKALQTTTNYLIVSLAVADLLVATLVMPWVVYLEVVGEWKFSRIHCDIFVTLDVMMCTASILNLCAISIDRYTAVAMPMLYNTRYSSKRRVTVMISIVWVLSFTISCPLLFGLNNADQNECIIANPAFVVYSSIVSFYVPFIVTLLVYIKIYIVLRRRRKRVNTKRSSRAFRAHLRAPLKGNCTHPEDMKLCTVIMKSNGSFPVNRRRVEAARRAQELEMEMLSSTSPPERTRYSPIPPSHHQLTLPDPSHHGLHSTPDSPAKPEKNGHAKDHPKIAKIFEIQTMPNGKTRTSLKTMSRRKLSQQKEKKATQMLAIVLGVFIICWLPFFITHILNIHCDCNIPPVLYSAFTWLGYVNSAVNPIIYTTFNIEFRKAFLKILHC
Text: as §3

[13] = target: sigma-2 receptor (Homo sapiens, UniProt Q5BJF2); assay: PDSP off-target binding; details: read-out: binding affinity sigma-2 (PDSP)
Chain of sigma-2 receptor (Q5BJF2 whole entry, species assumed): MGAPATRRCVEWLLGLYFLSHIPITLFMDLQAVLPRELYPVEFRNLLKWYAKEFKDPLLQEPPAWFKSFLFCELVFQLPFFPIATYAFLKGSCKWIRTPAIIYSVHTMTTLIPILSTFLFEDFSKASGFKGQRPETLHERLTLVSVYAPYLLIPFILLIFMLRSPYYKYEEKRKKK
Text: as §3

[14] = target: α2b adrenergic receptor (Homo sapiens, UniProt P18089); assay: PDSP off-target binding; details: read-out: binding affinity α2b (PDSP)
Chain of α2b adrenergic receptor (P18089 whole entry): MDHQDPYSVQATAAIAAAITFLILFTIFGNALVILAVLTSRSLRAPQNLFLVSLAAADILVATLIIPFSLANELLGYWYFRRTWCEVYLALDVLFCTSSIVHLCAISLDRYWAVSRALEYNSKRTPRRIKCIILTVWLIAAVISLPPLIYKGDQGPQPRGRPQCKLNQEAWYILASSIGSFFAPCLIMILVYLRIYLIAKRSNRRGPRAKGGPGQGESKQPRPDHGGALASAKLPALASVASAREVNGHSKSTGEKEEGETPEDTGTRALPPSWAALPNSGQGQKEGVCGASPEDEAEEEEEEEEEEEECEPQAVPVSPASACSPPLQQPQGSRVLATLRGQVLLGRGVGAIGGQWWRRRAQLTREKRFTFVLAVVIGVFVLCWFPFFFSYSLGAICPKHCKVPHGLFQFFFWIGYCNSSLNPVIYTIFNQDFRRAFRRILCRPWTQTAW
Text: as §3

[15] = target: D4 dopamine receptor (Homo sapiens, UniProt P21917); assay: PDSP off-target binding; details: read-out: binding affinity D4 (PDSP)
Text: as §3

[16] = target: norepinephrine transporter (NET) (Homo sapiens, UniProt P23975); assay: PDSP off-target binding; details: read-out: binding affinity NET (PDSP)
Text: as §3

[17] = target: D5 dopamine receptor (Homo sapiens, UniProt P21918); assay: PDSP off-target binding; details: in words
Text: as §3

[18] = target: 5-HT2B receptor (Homo sapiens, UniProt P41595); assay: PDSP off-target binding; details: read-out: binding affinity 5-HT2B (PDSP)
Text: as §3

[19] = target: 5-HT7A receptor (Homo sapiens, UniProt P34969); assay: PDSP off-target binding; details: read-out: binding affinity 5-HT7A (PDSP)
Chain of 5-HT7A receptor (P34969 1-445 isoform P34969-2): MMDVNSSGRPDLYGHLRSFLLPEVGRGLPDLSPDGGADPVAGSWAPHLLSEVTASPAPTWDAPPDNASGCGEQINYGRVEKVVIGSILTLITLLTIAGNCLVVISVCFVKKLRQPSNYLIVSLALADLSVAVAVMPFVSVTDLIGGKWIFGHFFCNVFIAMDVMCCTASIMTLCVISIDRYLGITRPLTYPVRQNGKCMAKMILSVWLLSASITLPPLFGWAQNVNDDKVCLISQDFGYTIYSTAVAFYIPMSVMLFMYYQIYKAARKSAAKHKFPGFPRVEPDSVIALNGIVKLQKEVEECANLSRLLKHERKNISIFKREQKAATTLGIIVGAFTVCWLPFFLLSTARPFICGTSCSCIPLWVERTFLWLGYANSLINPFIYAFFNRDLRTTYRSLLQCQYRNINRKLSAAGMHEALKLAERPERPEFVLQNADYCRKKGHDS
Text: as §3

[20] = target: T1, D3 dopamine receptor; assay: β-arrestin binding assay (DiscoverX PathHunter, DRD3-U2OS cells); assay type: cell-based; parameters: host or cells: U2OS (PathHunter eXpress DRD3-U2OS); details: human D3, test compound at 10x Ki, normalized to quinpirole
Method: as §1
The β-arrestin binding assay was performed using a DiscoverX Pathhunter® kit according to the manufacturer’s instructions. PathHunter® eXpress β-Arrestin GPCR cells are engineered to co-express the ProLink™ (PK) tagged GPCR and the Enzyme Acceptor (EA) tagged β-Arrestin. Activation of the GPCR-PK induces β-Arrestin-EA recruitment, forcing complementation of the two β-galactosidase enzyme fragments (EA and PK). The resulting functional enzyme hydrolyzes substrate to generate a chemiluminescent signal. DRD3-U2OS cells were seeded according to kit instructions into white plastic 96-well plates (provided with the kit) 48 h prior to the assay in a volume of 100 μL/well using the Cell Plating Reagent (CPR) provided. Vehicle or test drug, diluted in CPR, was added to the designated wells and incubated for 90 min at 37 °C. Working detection solution (a component provided with the kit) was added to the wells and incubated for 1 h in the dark at room temperature. As discussed for the cyclase assay, an Enspire Alpha 2390 Multilabel Reader/Luminometer was used to detect the luminescent signal with haloperidol and quinpirole used as reference antagonist and full agonist, respectively.
as §2

- efficacy in adenylyl cyclase inhibition assay [1]: weak partial agonists
- binding affinity D1 (PDSP) [2]: low affinity binding
- Ki [3]: 9.8 nM
- Ki [4]: > 750 nM
- Ki [5]: > 100 nM
- Ki [6]: 16.6 nM
- Ki [7]: > 190 nM
- Ki [8]: 27.1 nM
- Ki [9]: 0.2 nM
- Ki [10]: 15.2 nM
- Ki [11]: > 175 nM
- binding affinity D2 (PDSP) [12]: low affinity binding
- Ki [13]: 33.1 nM
- Ki [14]: > 100 nM
- Ki [15]: > 1500 nM
- Ki [16]: > 650 nM
- binding affinity D5 (PDSP) [17]: low affinity binding
- Ki [18]: 36.3 nM
- Ki [19]: 73.6 nM
- efficacy in β-arrestin binding assay [20]: weak partial agonists
SMILES: O=C(NCCCCN1CCN(c2ccccc2F)CC1)c1ccc(-c2ccsc2)cc1 [Compound 6a]
